One experiment relates to SD rats. Briefly: Von Frey test in rat incisional pain model (Brennan method). Type of experiment: in vivo. Conditions: for Von Frey Hairs (g) 1 h: paw withdrawal threshold 1 h after surgery; for Von Frey Hairs (g) 1 h / Von Frey Hairs (g) 3 h / Von Frey Hairs (g) 6 h / Von Frey Hairs (g) 12 h / Von Frey Hairs (g) 24 h: injected in the incision, 10 mg/kg (counted by lidocaine) or 4 mg/kg (counted by bupivacaine); for Von Frey Hairs (g) 1 h / Von Frey Hairs (g) 3 h / Von Frey Hairs (g) 6 h / Von Frey Hairs (g) 12 h / Von Frey Hairs (g) 24 h / Von Frey Hairs (g) Basline: x±s; for Von Frey Hairs (g) 3 h: paw withdrawal threshold 3 h after surgery; for Von Frey Hairs (g) 6 h: paw withdrawal threshold 6 h after surgery; for Von Frey Hairs (g) 12 h: paw withdrawal threshold 12 h after surgery; for Von Frey Hairs (g) 24 h: paw withdrawal threshold 24 h after surgery; for Von Frey Hairs (g) Basline: paw withdrawal threshold before surgery and administration, 6 rats per group.

The conditions of experiment [1]: background statement; cited from earlier work.
The conditions of experiment [2]: single dose injected; postoperative pain; background statement; cited from earlier work.

Consider six compounds from US10525143B2, “Conjugate of polyethylene glycol and anesthetic, and preparation method thereof” (JenKem Technology Co., Ltd. (Tianjin), priority 2015, dated 2020).

Molecules are shown by their SMILES. Counter-ions that a name gives are not always drawn.

Consider `CCN(CC)CC(=O)Nc1c(C)cccc1C` [Lidocaine hydrochloride], for which, in the experiment on SD rats, the “Von Frey Hairs (g) 1 h” value is reported as 6.6 ± 0.5 g, the “Von Frey Hairs (g) 3 h” value was 6.1 ± 0.4 g, the “Von Frey Hairs (g) 6 h” value is given as 4.0 ± 0.6 g and the “Von Frey Hairs (g) 12 h” value amounted to 1.5 ± 0.4 g. Besides, in the experiment with SD rats, the “Von Frey Hairs (g) 24 h” value is listed as 1.4 ± 0.2 g and the “Von Frey Hairs (g) Basline” value is recorded as 7.5 ± 0.8 g.
On to `CCCN1CCCC[C@H]1C(=O)Nc1c(C)cccc1C` [ropivacaine], for which the “duration of the drug (local anesthesia)” value in experiment [1] is 4.4 h.
Consider `CCCCN1CCCCC1C(=O)Nc1c(C)cccc1C` (stereo not drawn) [Bupivacaine], for which the “duration of analgesic effect” value in experiment [2] is reported as “less than 7 h”.
Regarding `CCN(CC)CC(=O)Nc1c(C)cccc1C` [lidocaine], the “duration of the drug (local anesthesia)” value in experiment [1] is 1 to 2 h.
With `CCCCN1CCCCC1C(=O)Nc1c(C)cccc1C` (stereo not drawn) [Bupivacaine hydrochloride], in the experiment on SD rats (discussion of Table 1), the “duration of analgesia (in words)” value was “relatively long duration” and the “onset of analgesic effect (in words)” value is “takes effect more slowly than lidocaine hydrochloride”. In the experiment with SD rats, the “Von Frey Hairs (g) 1 h” value was 4.3 ± 0.7 g, the “Von Frey Hairs (g) 3 h” value was 6.6 ± 0.4 g, the “Von Frey Hairs (g) 6 h” value stood at 5.3 ± 0.5 g and the “Von Frey Hairs (g) 12 h” value came to 3.4 ± 0.9 g. In the experiment with SD rats, the “Von Frey Hairs (g) 24 h” value was determined as 1.7 ± 0.4 g and the “Von Frey Hairs (g) Basline” value was 7.3 ± 0.7 g.
Regarding `CCCCN1CCCC[C@H]1C(=O)Nc1c(C)cccc1C` [L-bupivacaine], the “duration of the drug (local anesthesia)” value in experiment [1] is 5 to 7 h.
